Results reported in patent US9650372B2, “Molecules having pesticidal utility, and intermediates, compositions, and processes, related thereto” (priority 2015, dated 2017).

Legend:
[1] = test system: Beet Armyworm (Spodoptera exigua, LAPHEG); assay: Bioassay on Beet Armyworm (BAW), 128-well diet tray assay; assay type: in vivo; settings: 168 h, 50 μg/cm^2 on artificial diet, second instar larvae, 25° C., five to seven days, average of eight wells, read-out: BAW % Control (or Mortality) rating
Experimental: (§1) Certain molecules disclosed in this document were tested against BAW and CL using procedures described in the following examples. In the reporting of the results, the “BAW & CL Rating Table” was used (See Table Section).
Bioassays on BAW were conducted using a 128-well diet tray assay. One to five second instar BAW larvae were placed in each well (3 mL) of the diet tray that had been previously filled with 1 mL of artificial diet to which 50 μg/cm^2 of the test molecule (dissolved in 50 μL of 90:10 acetone-water mixture) had been applied (to each of eight wells) and then allowed to dry. Trays were covered with a clear self-adhesive cover, vented to allow gas exchange, and held at 25° C., 14:10 light-dark for five to seven days. Percent mortality was recorded for the larvae in each well; activity in the eight wells was then averaged. The results are indicated in the table entitled “Table ABC: Biological Results” (See Table Section).

[2] = test system: Cabbage Looper (Trichoplusia ni, TRIPNI); assay: Bioassay on Cabbage Looper (CL), 128-well diet tray assay; assay type: in vivo; settings: 168 h, 50 μg/cm^2 on artificial diet, second instar larvae, 25° C., five to seven days, average of eight wells, read-out: CL % Control (or Mortality) rating
Experimental: as §1
Bioassays on CL were conducted using a 128-well diet tray assay. One to five second instar CL larvae were placed in each well (3 mL) of the diet tray that had been previously filled with 1 mL of artificial diet to which 50 μg/cm^2 of the test molecule (dissolved in 50 μL of 90:10 acetone-water mixture) had been applied (to each of eight wells) and then allowed to dry. Trays were covered with a clear self-adhesive cover, vented to allow gas exchange, and held at 25° C., 14:10 light-dark for five to seven days. Percent mortality was recorded for the larvae in each well; activity in the eight wells was then averaged. The results are indicated in the table entitled “Table ABC: Biological Results” (See Table Section).

Compound | mortality at 50 µg/cm2 [1] | mortality at 50 µg/cm2 [2]
Cc1ccc(C(C)C)c(N2C(=O)CS/C2=N\C(=O)Nc2ccc(-c3ncn(CCc4ccc(OC(F)(F)F)cc4)n3)cc2)c1 [Molecule F1, (Z)-1-(3-(2-isopropyl-5-methylphenyl)-4-oxothiazolidin-2-ylidene)-3-(4-(1-(4-(trifluoromethoxy)phenethyl)-1H-1,2,4-triazol-3-yl)phenyl)urea] | 50 to 100% | 50 to 100%
CC(C)c1ccccc1N1C(=O)CS/C1=N\C(=O)Nc1ccc(-c2ncn(CCCC(F)(F)C(F)(F)F)n2)cc1 [Molecule F2, (Z)-1-(3-(2-Isopropylphenyl)-4-oxothiazolidin-2-ylidene)-3-(4-(1-(4,4,5,5,5-pentafluoropentyl)-1H-1,2,4-triazol-3-yl)phenyl)urea] | 50 to 100% | 50 to 100%
CC(C)c1ccccc1N1C(=O)CS/C1=N\C(=O)Nc1ccc(-c2ncn(Cc3ccc(C(F)(F)F)cc3)n2)cc1 [Molecule F3, (Z)-1-(3-(2-Isopropylphenyl)-4-oxothiazolidin-2-ylidene)-3-(4-(1-(4-(trifluoromethyl)benzyl)-1H-1,2,4-triazol-3-yl)phenyl)urea] | 0 to 50% | 50 to 100%
CC(C)c1ccccc1N1C(=O)CS/C1=N\C(=O)Nc1ccc(-c2ncn(CCCCC(F)(F)F)n2)cc1 [Molecule F4, (Z)-1-(3-(2-Isopropylphenyl)-4-oxothiazolidin-2-ylidene)-3-(4-(1-(5,5,5-trifluoropentyl)-1H-1,2,4-triazol-3-yl)phenyl)urea] | 50 to 100% | 50 to 100%
CC(C)c1ccccc1N1C(=O)CS/C1=N\C(=O)Nc1ccc(-c2ncn(CCC(F)(F)C(F)(F)C(F)(F)F)n2)cc1 [Molecule F5, (Z)-1-(4-(1-(3,3,4,4,5,5,5-heptafluoropentyl)-1H-1,2,4-triazol-3-yl)phenyl)-3-(3-(2-isopropylphenyl)-4-oxothiazolidin-2-ylidene)urea] | 50 to 100% | 50 to 100%
